The text below walks through data of PubChem BioAssay (NCI).

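1) Cells in 96-well plates. 2) Compound, 48 h, 5 concentrations. 3) Linear interpolation between surrounding doses. 4) Unreached endpoint = highest concentration. GI50 = concentration required for 50% inhibition of growth. TGI denotes the concentration required for complete inhibition of growth.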 Some results are limits rather than exact numbers.

Holding throughout (test): DTP human tumour cell line panel, 48 h
Assay [1] concerns UO-31 renal.
For assay [2], the system named is RXF 393 renal.
Assay [3] deals with RPMI-8226 leukemia.
Assay [4] has as its system CAKI-1 renal.
Assay [5] relates to KM12 colon.
Assay [6] deals with IGROV1 ovarian.
The subject of assay [7] is SK-MEL-2 melanoma.
Assay [8] deals with MOLT-4 leukemia.
Assay [9] deals with HOP-92 NSCLC.

A word on the TGI: it is the concentration giving total growth inhibition. Read a low TGI as more potent growth arrest. As to `O=C(O)c1cc(Cl)cc(NC(=O)C(Cl)Cl)c1Cl`, the TGI in assay [1], in assay [2], in assay [3], in [4], in assay [5] and in assay [6] was over 100 µM each time. Besides, the TGI in assay [7] and in [8] was over 100 µM each time.

For the compound `c1ccc2c(c1)CCCc1cc3ccccc3nc1-2`, the TGI in assay [1] is over 100 µM; in [3] it was 99.2 µM; in [4] it was over 100 µM; in assay [5], over 100 µM; in assay [6], over 100 µM; in assay [7] it was over 100 µM. Moreover, the TGI in assay [8] is over 100 µM.

Consider `O=C1[C@H]2C(c3ccccc3)=NN(C(=O)c3ccccc3)[C@H]2C(=O)N1c1ccccc1`, for which the TGI in assay [1], in [2], in assay [3], in assay [5], in assay [6] and in assay [7] was over 100 µM each time. The TGI in assay [8] is over 100 µM.

As to `O=C(CCCCCCCCCCc1ccccc1)c1c(O)cccc1O`, the TGI in assay [1] was 38.7 µM; in assay [9], 41.8 µM; in [2], 39.9 µM; in assay [3], over 100 µM; in [4], 74.8 µM; in assay [5], 33.2 µM. Besides, the values for the TGI in assay [6], in [7] and in [8] were 60.5 µM, 31.3 µM and 61.8 µM, respectively.

`N#Cc1c2c(c(N=[N+]=[N-])n3c1nc1ccccc13)CCCC2`: the TGI in assay [1] was found to be 4.55 µM; in assay [2], 3.19 µM; in [3] it was 6.85 µM; in [4] it was 6.39 µM; in [5], 5.53 µM; in [6], 6.56 µM. Moreover, the TGI in assay [7] is 3.58 µM; in assay [8] it was 5.37 µM.

Turning to `CCOC(=O)/C=C1\Nc2ccccc2C(c2ccccc2)=NC1OC(C)=O` (stereo not given), the TGI in assay [1], in assay [9], in assay [3], in assay [4], in assay [5] and in assay [6] was over 100 µM each time. Also, the total growth inhibition concentration (TGI) in assay [7] and in [8] was over 100 µM each time.

Turning to `CCC1OCCN1C(C)C` (stereo not given), the TGI in assay [1], in assay [2], in assay [3], in [5], in assay [6] and in assay [7] was over 100 µM throughout. The same compound showed a TGI in assay [8] of over 100 µM.

Regarding `Cc1cc(N(CCC#N)S(=O)(=O)c2ccccc2)ccc1C=O`, the TGI in assay [1], in assay [2], in assay [3], in assay [4], in assay [5] and in assay [6] was over 100 µM in each case. In addition, the TGI in assay [7] and in assay [8] was over 100 µM in each case.

In the case of `COc1cc2ccn3c4cc(OC)c(OC)cc4cc3c2cc1OC`, the TGI in assay [1], in assay [9], in assay [3], in assay [4], in assay [5] and in [7] was over 100 µM each time. In assay [8], this compound showed a TGI of over 100 µM.

For the compound `CC1CCC(O)C(C(O)CC2CC(=O)N(C)C(=O)C2)C1` (stereo not given), the TGI in [1], in [9], in [2], in assay [3], in assay [4] and in [5] was over 100 µM in each case. For the same compound, the TGI in assay [6] and in assay [8] was over 100 µM in each case.

For `Clc1ccc2c(Cl)ncnc2c1`, the TGI in [1], in [9], in assay [3], in assay [4], in assay [5] and in assay [6] was over 100 µM throughout. Besides, the TGI in assay [7] and in assay [8] was over 100 µM in each case.

For the compound `COC(=O)c1c(C)oc2ccc(OC(C)=O)cc12`, the total growth inhibition concentration (TGI) in assay [1], in assay [2], in assay [3], in assay [4], in [5] and in assay [6] was over 100 µM each time. The TGI in assay [7] and in [8] was over 100 µM each time.

On to `Brc1ccc2c(c1)C1(c3cc(Br)ccc3-2)c2cc(Br)ccc2-c2ccc(Br)cc21`, for which the TGI in [1], in assay [2], in [3], in [4], in assay [5] and in assay [6] was over 100 µM in each case. The TGI in assay [7] and in assay [8] was over 100 µM throughout.

Regarding `CC1=CC2=C(C)C3(CC3)[C@@](C)(O)C(=O)C2=C1`, the TGI was 0.337 µM in assay [1]; 0.692 µM in [9]; 0.246 µM in assay [2]; over 1 µM in assay [3]; 0.744 µM in [4]; over 0.918 µM in [5]. Moreover, the TGI is over 0.979 µM in assay [6], 0.365 µM in [7] and over 1 µM in assay [8].

For orientation: GI50 means the concentration that inhibits growth by half. With `CC(C)OP(=O)(OC(C)C)C(N(C)C)P(=O)(OC(C)C)OC(C)C.[Cl][Sn]([Cl])([Cl])[c]1ccccc1`, the GI50 in [1] is 4.12 µM; in assay [2] it was 2.81 µM; in assay [3] it was 1.84 µM; in assay [4], 3.7 µM; in assay [5] it was 3.6 µM; in assay [6] it was 3.61 µM. In addition, the GI50 in [7] was 2.15 µM; in assay [8] it was 1.97 µM. The TGI in assay [1] is over 100 µM; in [2], 11.4 µM; in assay [3], 5 µM; in [4], over 100 µM; in [5], over 100 µM; in assay [6], 92.7 µM. Besides, the results for the TGI in [7] and in assay [8] were 5.3 µM and 7.39 µM, respectively.

On to `COc1cc2c3c(c1OC)-c1ccccc1C(C(OC(C)=O)c1ccccc1)C3N(C)CC2` (stereo not given), for which the TGI in assay [1] is over 100 µM; in assay [9], over 100 µM; in [2], over 100 µM; in assay [3], 80.7 µM; in assay [4], over 100 µM; in assay [5], over 100 µM. Also, the figures for the TGI in assay [6], in assay [7] and in [8] were over 100 µM, 83.7 µM and over 100 µM, respectively.
